Experimental data from publication PMC5513871 (British Journal of Pharmacology, 2017).
Where two headings read alike, the source gives them in different places.

Tests used:
AF goat model = conditions: cited from earlier work
anaesthetized SR dogs = conditions: 4 mg/kg/40 min, at 40 min; ref Yokoyama et al. (2009); cited from earlier work
[1] = test system: Langendorff‐perfused sheep heart; conditions: ref Noujaim et al., 2011; cited from earlier work
IKACh = conditions: read-out: IC50 IKACh; ref Filgueiras‐Rama et al., 2012; cited from earlier work
IKATP = conditions: read-out: IC50 IKATP; ref Filgueiras‐Rama et al., 2012; cited from earlier work
IK1 = conditions: read-out: IC50 IK1; ref Filgueiras‐Rama et al., 2012; cited from earlier work
cAVB dogs = assay: Proarrhythmia test; type: in vivo, dog; conditions: cAVB dogs n = 9, paced 1 Hz; PA‐6 2.5 mg/kg/10 min, dofetilide 0.025 mg/kg/5 min
[2] = test system: normal dogs under anaesthesia; conditions: 1 μmol/kg/min; ref Roza and Berman, 1971; cited from earlier work
[3] = awake goats, 1 week of AF, ref Eijsbouts et al., 2006
[4] = awake goats, 4 weeks of AF, ref Eijsbouts et al., 2006
[5] = awake goats, 8 weeks of AF, ref Eijsbouts et al., 2006
[6] = awake goats, 16 weeks of AF, ref Eijsbouts et al., 2006

SMILES: O=C(NCC1CCCCN1)c1cc(OCC(F)(F)F)ccc1OCC(F)(F)F (stereo not shown) [flecainide]
- Cardioversion rate (AF goat model; [3]): 60%
- Cardioversion rate (AF goat model; [4]): 33%
- Cardioversion rate (AF goat model; [5]): 33%
- Cardioversion rate (AF goat model; [6]): 17%

SMILES: N=C(N)c1ccc(OCCCCCOc2ccc(C(=N)N)cc2)cc1 [pentamidine]
- QTc increase (anaesthetized SR dogs): approx. 8%

SMILES: CCN(CC)CCCC(C)Nc1ccnc2cc(Cl)ccc12 (stereo not shown) [chloroquine]
- Concentration terminating cholinergically induced AF [1]: 10 µM
- IC50 (IKACh): 0.38 µM
- IC50 (IKATP): 0.51 µM
- IC50 (IK1): 0.69 µM

SMILES: c1ccc(C2(c3ccccc3)CC2C2=NCCN2)cc1 (stereo not shown) [cibenzoline]
- Cardioversion rate (AF goat model; 3 to 4 weeks of pacing induced persistent AF, ref Eijsbouts et al., 2006): 78%
- Cardioversion rate (AF goat model; [3]): 80%
- Cardioversion rate (AF goat model; [4]): 78%
- Cardioversion rate (AF goat model; [5]): 67%
- Cardioversion rate (AF goat model; [6]): 63%

SMILES: CN(CCOc1ccc(NS(C)(=O)=O)cc1)CCc1ccc(NS(C)(=O)=O)cc1 [dofetilide]
- LVMAPD80 (cAVB dogs): 400 ± 64 ms
- QTc (cAVB dogs): 600 ± 33 ms
- STV (cAVB dogs): 1.82 ± 0.88 ms

SMILES: [Ba+2].[Cl-].[Cl-] [BaCl2]
- Course of events upon infusion [2]: hypotension, flaccid paralysis of skeletal muscles, ventricular tachycardia and fibrillation

SMILES: CC(C)NC[C@@H](O)c1ccc(NS(C)(=O)=O)cc1 [d‐Sotalol]
- Cardioversion rate (AF goat model; 3 to 4 weeks of pacing induced persistent AF, ref Wijffels et al., 1999): 92%
